# Results published in ChEMBL document CHEMBL1136614, “Hydroporphyrins as tumour photosensitizers: synthesis and photophysical studies of 2,3-dihydro-5,15-di(3,5-dihydroxyphenyl) porphyrin” (2003).
# Tests used:
# C6 = assay: Survival rates when cells were incubated for 5 hr without light; assay type: functional, Rattus norvegicus
# [1] = Dose required to induce 90% death rate for C6 glioma cells from rats; assay type: functional, Rattus norvegicus
# HT-29 = assay: Compound was tested for in vivo photo-sensitizing activity on human colon adenocarcinoma cell (HT-29); assay type: functional
structure (smiles),measurement,setting,value
Oc1cc(O)cc(-c2c3nc(cc4ccc([nH]4)c(-c4cc(O)cc(O)c4)c4ccc(cc5nc2CC5)[nH]4)C=C3)c1,Survival,C6,100%
same,LD90,[1],4.8 µg/mL
same,Inhibition,HT-29,40%
